According to patent US20160271513A1, “DRYING TECHNIQUES FOR MICROFLUIDIC AND OTHER SYSTEMS” (PRESIDENT AND FELLOWS OF HARVARD COLLEGE, priority 2013, published 2016):
Blank lines part the entries; values can stand above or below the compound they belong to.

Key:
[1] = Structure and storage stability of spray-dried drug nanoparticles by X-ray diffraction; assay type: physicochemical
Description: While the characteristic size below which particles were entirely amorphous is system-specific, the suppression of nucleation in small droplets relies on a generally applicable physical principle. […] To test this expectation, the structure of spray-dried clotrimazole, estradiol, and danazol was examined using X-ray diffraction (XRD). To keep the nucleation time the same, they were dissolved at 10% of their saturation concentration. In agreement with the above, these spray-dried drug nanoparticles were amorphous.
Production of amorphous drugs may require the addition of excipients. However, despite the presence of excipients, these drugs tend to crystallize with time leading to a change in their dissolution kinetics; this prevents their application in industry. […] These drugs all had glass transition temperatures, Tg, above room temperature; they were therefore glasses at room temperature.
XRD. X-ray diffraction was performed on spray-dried nanoparticles collected onto a one-side polished (100) Si wafer for 11 h. Measurements were acquired on a XDS2000 instrument (Scintac Inc.) using a Cu Kα (K alpha) source with a wavelength λ=0.154056 nm. The angle 2θ was varied between 2 and 70° at a rate of 1°/min.
It was expected to crystallize over time if stored at room temperature even if it is initially fully amorphous.
To test if the nebulator also allowed production of amorphous nanoparticles from materials with a Tg […] room temperature, which would be a glass at room temperature, clotrimazole, estradiol, and danazol, all poorly water soluble drugs with Tgs above 20° C., were spry dried. The size of the spray dried nanoparticles was determined by the initial solute concentration and the initial drop size. To ensure similar sizes of the spray dried nanoparticles, the initial solute concentration was fixed to 5 mg/ml. […] Thus, the nebulator allowed formulation of poorly water soluble drugs as amorphous nanoparticles.
To ease the handling drugs, fenofibrate was co-spray dried with different types of excipients. […] Four different types of Pluronics were compared: F68 and F127 are solids at room temperature and Pluronics P84 and P104 are pastes at room temperature.
By analogy to Pluronics, drugs spray dried from solutions containing equal weights of drugs and excipients were crystalline. By contrast, increasing the weight fraction of PVP five-fold results in XRD-amorphous danazol nanoparticles, in agreement to danazol nanoparticles formulated using the microfluidic spray drier.
To maintain the stability of spray dried amorphous nanoparticles and facilitate their handling by embedding them in an excipient matrix, PVP was deposited on a Si-wafer and subsequently drugs were spray dried into the PVP matrix. […] However, because excipients were not required to make the drug amorphous but rather to ease their handling, this procedure is generally applicable to the formulation of many different types of drugs, by contrast to the solid dispersions where the appropriate excipients must be selected for each system individually. Thus, the nebulator used in this example allowed the formulation of amorphous drug nanoparticles that optionally could be sprayed into an excipient matrix to facilitate their handling.

[2] = room temperature
Description: To calculate the time available for crystalline nuclei to form, the saturation concentration of NaCl was measured in water at room temperature to be 6.3 mol/l.

[3] = Crystalline fraction of spray-dried nanoparticles by differential scanning calorimetry; assay type: physicochemical
Description: The size of inorganic nanoparticles can influence their structure.
DSC. Differential scanning calorimetry was performed on spray-dried nanoparticles that are collected in an aluminium based Tzero DSC pan. To obtain sufficient amounts of samples, nanoparticles were collected for 11 h before being sealed in the DSC pan with a Tzero Hermetic Lid (TA Instruments). DSC was measured on a DSC Q200 at a nitrogen flow rate of 50 ml/min (TA instruments); the temperature was increased from 40° C. to 85° C. at a rate of 1° C./min and subsequently the sample was cooled to 25° C. at the same rate. To quantify the amount of nanoparticles, thermogravimetry analysis (TGA) was performed on these samples after completing the DSC analysis. For this, the hermetically sealed pans were opened and TGA was performed on these samples by increasing the temperature from 25° C. to 400° C. at a rate of 10° C./min under a N2 flow of 10 ml/min (Q5000, TA instrument). The absolute mass loss was measured between 100° C. and 300° C. and the DSC data was normalized accordingly.

[4] = spray-dried from ethanol without excipients, 0.28 MPa
[5] = spray-dried without excipients, stored under ambient conditions

structure of spray-dried nanoparticles (XRD) ([1]; co-spray dried with PVP, PVP five times the drug): XRD-amorphous
structure of spray-dried nanoparticles (XRD) ([1]; pure drug spray dried onto a PVP matrix): XRD-amorphous
structure of spray-dried nanoparticles (XRD) [1, 4]: amorphous
Compound: C#C[C@]1(O)CC[C@H]2[C@@H]3CCC4=Cc5oncc5C[C@]4(C)[C@H]3CC[C@@]21C [danazol]
structure of spray-dried nanoparticles (XRD) ([1]; co-spray dried with Pluronics F68, F127, P84 or P104, equal weights): contain a significant fraction of crystalline regions
crystallization on storage ([1]; co-spray dried with equal weight of Pluronics (F68, F127, P84, P104), two weeks under ambient conditions): this fraction markedly increases after storing the sample for two weeks under ambient conditions
crystallization on storage [1, 5]: did not crystallize if stored under ambient conditions for at least four weeks

structure of spray-dried nanoparticles (XRD) [1, 4]: amorphous
Compound: Clc1ccccc1C(c1ccccc1)(c1ccccc1)n1ccnc1 [clotrimazole]
crystallization on storage [1, 5]: did not crystallize if stored under ambient conditions for at least four weeks

Compound: [Cl-].[Na+] [NaCl]
saturation concentration of NaCl in water [2]: 6.3 mol/L

crystalline fraction from area of the melting peak ([3]; 25 nm large particles): 6 vol %
crystalline fraction from area of the melting peak ([3]; particles with a diameter of 20 nm): 3 vol %
Compound: CC(C)OC(=O)C(C)(C)Oc1ccc(C(=O)c2ccc(Cl)cc2)cc1 [fenofibrate]
